Experimental data published in ChEMBL document CHEMBL3997811.

What was measured:
MDCK = assay: Cytotoxicity against MDCK cells after 48 hrs by neutral red uptake assay; assay type: cell-based, Canis lupus familiaris; conditions: dog
A549 = assay: Cytotoxicity against human A549 cells after 48 hrs by neutral red uptake assay; assay type: cell-based; conditions: a549, 48 h

SMILES | CC50 (MDCK) [µM] | CC50 (A549) [µM]
OC12CC3CC(C1)CC(NCc1cc(-c4cc(Cl)sc4Cl)on1)(C3)C2 | 87.6 | –
CSc1ccccc1-c1cc(CNC23CC4CC(CC(O)(C4)C2)C3)no1 | 59.3 | 102
Clc1cc(-c2cc(CNC34CC5CC(CC(C5)C3)C4)no2)cs1 | 35.6 | 52.6
Oc1ccccc1-c1cc(CNC23CC4CC(CC(C4)C2)C3)no1 | 73.7 | 78.2
COc1sccc1-c1cc(CNC23CC4CC(CC(C4)C2)C3)no1 | 30.6 | 35.5
OC12CC3CC(C1)CC(NCc1cc(-c4ccccc4Cl)on1)(C3)C2 | 64.1 | 143
Clc1cc(-c2cc(CNC34CC5CC(CC(C5)C3)C4)no2)c(Cl)s1 | 39.3 | 61.4
